Series [1] deals with T84 cells. Briefly: Butyrate metabolism and oxygen consumption in T84 cells. The series is classed as cell-based. How it is done: (§1) T84 cells were cultured in 95% air with 5% CO2 at 37°C in standard media made of DMEM:F-12 supplemented with 10% calf serum, 1% penicillin/streptomycin, and 1% GlutaMAX™ (ThermoFisher Scientific) on 9.6 cm^2 6-well plates (ThermoFisher Scientific). Real-time oxygen sensing was done using the SensorDish Reader from Applikon Biotechnology as described previously with T84 cells plated on 0.33 cm^2 transwell inserts (Corning, 0.4 μm).[12] All MCPA treatments included a 2 h pretreatment with MCPA before treatment with butyrate.
(§2) Metabolites Extractions and HPLC-DAD: Cell and colon tissue metabolites were extracted and analyzed as previously described with minor variations.[61],[62] The metabolites were detected by absorption at wavelengths of 210, 254, and 280 nm, with their absorbance spectra and retention times verified by co-injection with authentic standards. Metabolites for HPLC-ESI MS analyses were resuspended in deionized water (pH 7.2).

Series [2] deals with murine colon tissue. The experiment in a line: Tributyrin oral gavage in antibiotic-treated SCFA-depleted mice. The series is classed as in vivo. The protocol: (§3) C57BL/6 mice were purchased from Jackson Laboratories. Animals were maintained and bred in standard housing conditions under 24 h/day, 7 days/week veterinary care available at the University of Colorado Anschutz Medical Campus (AMC) animal facility. All animal procedures were reviewed and approved by the Institutional Animal Care and Use Committee at AMC. 8 to 10-week-old male and female mice were pre-administered an antibiotic cocktail consisting of 1 mg/mL ampicillin, gentamicin, and neomycin, 0.5 mg/mL vancomycin, and 0.25 mg/mL metronidazole for 5 d ad libitum in addition to water control mice. Mice were then given 200 µL of tributyrin daily for three days using reusable feeding needles (18060–20, Fine Science Tools). On the third day, 4 h prior to sacrifice, select mice given tributyrin were rectally given 100 μL of 60 mM MCPA with plastic gavage tubes (FTP-20-38-50, Instech) inserted 1 cm into the rectum without surgical lubricant. Whole colon tissue at the site of the rectal gavage was collected for metabolite analysis, while colon whole tissue and epithelial scrapings upstream from the gavage site was collected for RNA and protein analysis. In the second butyrate reconstitution experiment, mice were rectally given 100 μL of 100 mM butyrate, 100 mM butyrate with 10 mM MCPA, 1.5 mM IOX2, or PBS control under anesthesia. Mice were then sacrificed 1 h after rectal supplementation and colon tissues collected for metabolite, mRNA, and protein analysis from the site of the rectal gavage.
(§4) TRIzol® reagent (ThermoFisher Scientific) was used to isolate total RNA from T84 cells. Mouse colon tissue samples were harvested into RNAlater™ (Invitrogen) and stored at 4°C for 48 h. Total RNA was isolated from the tissues using RNeasy Plus Mini Kit (Qiagen). cDNA was prepared using the iScript cDNA Synthesis Kit (Bio-Rad). Quantitative PCR analysis was performed using the Power SYBR™ Green master mix (Applied Biosystems) in a thermocycler. Fold change in expression of target mRNA relative to β-actin (ACTB) mRNA was calculated using the delta-delta Ct method. Primer sequences used are as follows: hBNIP3 – forward, 5′- […] −3′, reverse, 5′- […] −3′; hBNIP3L – forward, 5′- […] −3′, reverse, 5′- […] −3′; hGLUT1 – forward, 5′- […] −3′, reverse, 5′- […] −3′; hACTB – forward, 5′- […]-3′, reverse, 5′- […]-3′; mBnip3 – forward, 5′- […] −3′, reverse, 5′- […] −3′; mBnip3l – forward, 5′- […] −3′, reverse, 5′- […] −3′; mGlut1 – forward, 5′- […] −3′, reverse, 5′- […] −3′; and mActb – forward, 5′- […] −3′, reverse, 5′- […] −3′.
(§5) T84 cells were rinsed with PBS and collected and lysed in 200 µL of radioimmunoprecipitation assay (RIPA, 50 mM Tris-HCl pH 8.0, 1 mM EDTA, 1% Triton X-100, […], 0.5% sodium deoxycholate, 150 mM NaCl) buffer with protease inhibitors on ice. Mouse colon samples were harvested into 350 µL of RIPA buffer and flash frozen in liquid nitrogen. Samples were homogenized by sonication, and insoluble materials removed by centrifugation at 10,000 g for 5 min at 4°C. Protein quantity of the supernatant was determined using the Bradford reagent. Laemmli sample buffer was added to each sample. Samples (20 µg) were run and separated on 8% SDS-PAGE gels and transferred to polyvinylidene fluoride (PVDF) membranes. Membranes were blocked overnight at 4°C in Tris-buffered saline with 1% Tween-20 (TBS-T) and 5% milk. […]

The next series concerns rat hepatocytes. Also noted: method as in PMID 9124539. To be noted: cited from earlier work.
Series [3] concerns the target T1, PHD2_181-402 (Homo sapiens, UniProt Q9GZT9). Briefly: PHD2_181-402 inhibition assay (bioluminescent succinate detection, Succinate-Glo). The series is classed as biochemical. To be noted: for IC50: read-out: True IC50; for fold less effective at inhibiting PHD2_181-402 (compared to butyrate): relative to butyrate true IC50. The protocol:
PHD2_181-402 activity and inhibition assays were performed with the Succinate-Glo JmjC Demethylase/Hydroxylase Assay Kit (Promega) according to manufacturer protocol and as detailed in Alves et al. […] The enzymatic reaction was incubated at room temperature for 10 minutes, after which succinate formation was detected according to manufacturer protocol. […] Then, 20 µL of Succinate Detection Reagent II was added to the reactions and incubated for 10 min at room temperature before the luciferase-generated luminescence was recorded on a plate-reading luminometer. Succinate standard curves were used to determine the sensitivity and linear range of the bioluminescent succinate detection. […] Succinate standards were serially diluted two-fold from 15 µM to 58.6 nM and a 0 succinate blank. 10 µL of succinate standards were used for detection as described above. […] Reactions were incubated at room temperature for 10 minutes and succinate detected. […] Measured IC50s were calculated from fitting the percentage activity data to the [Inhibitor] vs. normalized response – variable slope least squares nonlinear regression in GraphPad Prism 9. True IC50s were calculated from measured IC50s with the equation derived by Wu et al.[26] describing the relationship between the measured IC50 of an inhibitor and the percentage of substrate conversion.

Series [4] has as its target T1, PHD2_181-402. Briefly: WaterLOGSY 1D NMR binding. To be noted: 10 mM ligand, 25 μM PHD2_181-402. From the text:
Next, we established whether butyrate binds directly to PHD2_181-402 using 1D WaterLOGSY NMR.[28] This method enables sensitive and robust detection of binding (dissociation constants as weak as μM to low mM) based on the magnetization transfer between water molecules, proteins, and ligands of interest in close proximity via dipolar proton–proton cross-relaxation (nuclear Overhauser effect, NOE). […] Binding and non-binding ligands can be distinguished in a WaterLOGSY spectrum via their opposite signs in relation to water for their corresponding peaks.
Following an established protocol, all NMR analyses were performed using PHD2_181-402 and the diamagnetic element (Zn^2+) rather than a paramagnetic element such as Fe^2+ that would result in inhibitive signal reduction or loss due to fast relaxation induced by the unpaired electron.[63]
Water-Ligand Observed via Gradient SpectroscopY (WaterLOGSY): Measurements were carried out on a 600 MHz triple-resonance Bruker cryoprobe spectrometer.[28] Selective water inversion was achieved using an iBURP shaped pulse with 15 ms length and an inversion bandwidth of 0.4 ppm. The mixing time was set to 1 s, and the water was suppressed using double Watergate. 1024 scans were acquired with an interscan delay of 2 s. The sample concentration was 25 µM of PHD2_181-402 mixed with 10 mM of the different ligands in NMR buffer (Tris 50 mM, NaCl 20 mM, ZnCl2 100 μM) at pH 6.5.

The test system of another series is HDACs. Set-up: method as in PMID 18061431, PMID 30052654. To be noted: cited from earlier work.
For series [5], the system named is T84 cells. Briefly: 2-OG levels in T84 cells. The series is classed as cell-based. To be noted: 3 h, 10 mM butyrate or 30 μM IOX2. How it is done: as §1, §2
HPLC-ESI MS: Analyses were performed on an Agilent Technologies 1260 Infinity II LC/MSD iQ with electrospray ionization (ESI) mass detection. Negative ion mass-to-charge ratios (m/z) were scanned from 50 to 500. The metabolite extracts were chromatographed using a Sepax Carbomix column (Pb-Np5:8%, 5 μm, non-porous, 4.6 × 300 mm) (mobile phase A: water; mobile phase B: acetonitrile; column temperature, 75°C). Chromatographic separation was performed using a combination of isocratic and gradient methods, including column washing and equilibration periods at the end (0 min: 100% A, 0.12 mL/min; 60 min: 100% A, 0.12 mL/min; 70 min: 70% A, 0.5 mL/min; 145 min: 70% A, 0.5 mL/min; 150 min: 100% A, 0.5 mL/min; 164 min, 100% A, 0.5 mL/min; 165 min, 100% A, 0.12 mL/min; 170 min, 100% A, 0.12 mL/min).

Series [6] deals with murine colon tissue. The experiment in a line: Rectal gavage in antibiotic-treated SCFA-depleted mice. The series is classed as in vivo. To be noted: rectal 100 mM butyrate or 1.5 mM IOX2, 1 h, after antibiotics. How it is done:
as §3, §4, §5

Details of series [7]: method as in PMID 10321503. To be noted: mice, oral gavage with tributyrin, 1 h after dosing; cited from earlier work.
The mark [8] stands for this setting: 1 μM PHD2_181-402, 10 μM 2-OG, 10 μM Fe(II), 10 μM HIF-1α547-581 peptide, 100 μM ascorbic acid, 10-minute reaction, calculated from measured IC50 accounting for substrate conversion, error SEM.

Where two headings read alike, the source gives them in different places.

T1 sequence (Q9GZT9 181-402): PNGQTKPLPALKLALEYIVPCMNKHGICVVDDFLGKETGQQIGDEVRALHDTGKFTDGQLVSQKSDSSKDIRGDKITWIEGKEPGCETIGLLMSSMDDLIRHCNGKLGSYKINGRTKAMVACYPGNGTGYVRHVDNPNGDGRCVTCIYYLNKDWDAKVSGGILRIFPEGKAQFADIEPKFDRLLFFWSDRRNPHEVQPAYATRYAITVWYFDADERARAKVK

Turning to `C=C1CC1CC(=O)O` (stereo not shown) [MCPA, methylene cyclopropyl acetic acid], the butyrate metabolism result in the series on T84 cells [1] (600 μM butyrate with 1 mM MCPA, 0 to 6 h) is “reduced butyrate metabolism”. Further, in the series with T84 cells [1] (5 mM butyrate with 1 mM MCPA, 30 min), the butyrate-associated oxygen consumption entry is “eliminated the increase in oxygen consumption”. In addition, the “colon tissue butyrate level compared to tributyrin alone” value in the series with murine colon tissue [2] (60 mM MCPA rectal gavage 4 h in mice given tributyrin) is “significantly increased”. In addition, the “reduction of acetyl-CoA levels” value in the series on rat hepatocytes is on record as 70–90%.
For orientation: IC50 means the midpoint of a concentration-inhibition curve. With `COC(=O)CNC(=O)C(=O)OC` [DMOG, dimethyloxalylglycine, reference compound], the IC50 on PHD2_181-402 [3] (setting [8]) is 1.9 ± 0.5 mM. For the same compound, at PHD2_181-402 [3] (2-OG at 1, 5, 10, 40 or 100 µM), the “change of IC50 with increasing 2-OG” value is on record as “increased significantly”.
Consider `CCCCC(=O)O` [Valerate], for which, at PHD2_181-402 [3], the IC50 was found to be 16 ± 3 mM and the “fold less effective at inhibiting PHD2_181-402 (compared to butyrate)” value is reported as ~ 3 fold. For the same compound, the “binding to PHD2_181-402 (WaterLOGSY signal)” value (“binding … (WaterLOGSY signal)” below) on PHD2_181-402 [4] is on record as “no binding”. Also, in the series with HDACs, the HDAC inhibition result is given as “lesser degrees of HDAC inhibition”.
As for `O=C(O)CNC(=O)c1c(O)c2ccccc2n(Cc2ccccc2)c1=O` [IOX2, reference compound], the “2-OG levels compared to control” value in the series on T84 cells [5] is recorded as “lesser extent than butyrate”. The “mRNA expression of HIF-1α targets Bnip3, Bnip3l, Glut1” value with murine colon tissue [6] (colon tissue) is listed as “rescued”. Besides, the “colon tissue 2-OG levels” value in the series on murine colon tissue [6] was “rescued”.
Regarding `CC(=O)O` [Acetate], the IC50 at PHD2_181-402 [3] (setting [8]) is 50 ± 10 mM. The “fold less effective at inhibiting PHD2_181-402 (compared to butyrate)” value at PHD2_181-402 [3] was ~ 10 fold. Besides, the “binding … (WaterLOGSY signal)” value at PHD2_181-402 [4] is listed as “no binding”. In the series on HDACs, the HDAC inhibition result was “none”.
For `CC(O)CC(=O)O` (stereo not shown) [3-Hydroxybutyrate], the IC50 on PHD2_181-402 [3] (setting [8]) is 14 ± 1 mM.
As for `CCCC(=O)OCC(COC(=O)CCC)OC(=O)CCC` [tributyrin], the HIF-1α protein result with murine colon tissue [2] (epithelial scrapings and whole-colon tissue, tributyrin 200 µL, 3 d, with or without MCPA) was “rescued”. Further, in the series with murine colon tissue [2] (tributyrin 200 µL, 3 d, with or without MCPA), the “colon tissue 2-OG levels” value is listed as “recovered”. The “colon tissue butyrate levels” value with murine colon tissue [2] (tributyrin 200 µL, 3 d, with or without MCPA, versus antibiotics (glycerol control)) was “rescued”. The “HIF-1α target gene Bnip3l mRNA” value in the series on murine colon tissue [2] (whole-colon tissue and epithelial scrapings, tributyrin 200 µL oral gavage daily for 3 d, with or without 60 mM MCPA rectal 4 h) is listed as “normalized”. In series [7], the plasma butyrate concentrations is given as more than 1 mM.
As to `CCCCCC(=O)O` [Hexanoate], on PHD2_181-402 [3], the 50% inhibitory concentration (IC50) stood at 17 ± 3 mM and the “fold less effective at inhibiting PHD2_181-402 (compared to butyrate)” value is ~ 3 fold. For the same compound, the HDAC inhibition result in the series with HDACs is reported as “lesser degrees of HDAC inhibition”.
In the case of `CCC(=O)O` [Propionate], the IC50 at PHD2_181-402 [3] (setting [8]) is 60 ± 10 mM. For the same compound, the “fold less effective at inhibiting PHD2_181-402 (compared to butyrate)” value on PHD2_181-402 [3] was ~ 10 fold. For the same compound, the “binding … (WaterLOGSY signal)” value at PHD2_181-402 [4] is “no binding”. Moreover, the HDAC inhibition entry with HDACs is given as “lesser degrees of HDAC inhibition”.
Regarding `CCC(CC)C(=O)O` [2-Ethylbutyrate], at PHD2_181-402 [3] (setting [8]), the IC50 is 77 ± 6 mM.
